Target: T1, purified human Factor XIa (Homo sapiens, UniProt P03951)
T1 construct: purchased Haematologic Technologies
Assay: Factor XIa assay (chromogenic substrate hydrolysis, Ki)
Assay type: biochemical
Settings: purified human Factor XIa 75-200 pM, substrate S-2366, 50 mM HEPES pH 7.4
Method: The effectiveness of compounds of the present invention as inhibitors of the coagulation factors XIa, VIIa, IXa, Xa, XIIa, plasma kallikrein or thrombin, can be determined using a relevant purified serine protease, respectively, and an appropriate synthetic substrate. The rate of hydrolysis of the chromogenic or fluorogenic substrate by the relevant serine protease was measured both in the absence and presence of compounds of the present invention. […] A decrease in the rate of absorbance or fluorescence change in the presence of inhibitor is indicative of enzyme inhibition. Such methods are known to one skilled in the art. The results of this assay are expressed as the inhibitory constant, Ki.
Factor XIa determinations were made in 50 mM HEPES buffer at pH 7.4 containing 145 mM NaCl, 5 mM KCl, and 0.1% PEG 8000 (polyethylene glycol; JT Baker or Fisher Scientific). Determinations were made using purified human Factor XIa at a final concentration of 75-200 pM (Haematologic Technologies) and the synthetic substrate S-2366 (pyroGlu-Pro-Arg-pNA; Chromogenix or AnaSpec) at a concentration of 0.0002-0.001 M.
The Michaelis constant, Km, for substrate hydrolysis by each protease, was determined at 25° C. using the method of Lineweaver and Burk. Values of Ki were determined by allowing the protease to react with the substrate in the presence of the inhibitor. Reactions were allowed to go for periods of 20-180 minutes (depending on the protease) and the velocities (rate of absorbance or fluorescence change versus time) were measured. The following relationships were used to calculate Ki values: (vo−vs)/vs=I/(Ki(1+S/Km)) for a competitive inhibitor with one binding site; or vs/vo=A+((B−A)/1+((IC50/(I)^n))); and Ki=IC50/(1+S/Km) for a competitive inhibitor where: […]

T1 sequence (P03951 388-625 limits assumed): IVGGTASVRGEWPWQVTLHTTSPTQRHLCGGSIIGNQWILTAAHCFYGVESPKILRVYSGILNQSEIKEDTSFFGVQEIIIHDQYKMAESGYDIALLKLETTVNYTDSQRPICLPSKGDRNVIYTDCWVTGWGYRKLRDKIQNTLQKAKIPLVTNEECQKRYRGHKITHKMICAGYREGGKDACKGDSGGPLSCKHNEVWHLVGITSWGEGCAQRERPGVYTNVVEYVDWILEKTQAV
T1 sequence (P03951 19-387 partner limits assumed): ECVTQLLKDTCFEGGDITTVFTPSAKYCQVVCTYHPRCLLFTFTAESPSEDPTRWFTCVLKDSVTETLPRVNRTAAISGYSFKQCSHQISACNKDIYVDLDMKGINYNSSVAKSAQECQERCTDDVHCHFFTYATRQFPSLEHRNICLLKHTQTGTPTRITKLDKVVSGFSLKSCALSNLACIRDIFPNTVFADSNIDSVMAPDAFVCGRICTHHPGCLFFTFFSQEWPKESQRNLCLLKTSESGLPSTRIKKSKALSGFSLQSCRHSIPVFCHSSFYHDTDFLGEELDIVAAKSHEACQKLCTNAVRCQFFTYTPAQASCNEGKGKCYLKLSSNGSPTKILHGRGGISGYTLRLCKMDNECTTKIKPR

Ki	Compound
5.5 nM	COC(=O)Nc1ccc(-c2cc([C@H](CC(=O)OC(C)(C)C)NC(=O)/C=C/c3cc(Cl)ccc3-n3cnnn3)n[nH]c2=O)cc1 [Example 146, (S,E)-tert-Butyl 3-(3-(5-chloro-2-(1H-tetrazol-1-yl)phenyl)acrylamido)-3-(5-(4-(methoxycarbonylamino)phenyl)-6-oxo-1,6-dihydropyridazin-3-yl)propanoate]
141 nM	O=C(/C=C/c1cc(Cl)ccc1-n1cnnn1)N[C@@H](Cc1ccccc1)c1cc(-c2ccc(NC(=O)OC3CNC3)cc2)cnn1 [Example 89, (S,E)-Azetidin-3-yl 4-(6-(1-(3-(5-chloro-2-(1H-tetrazol-1-yl)phenyl)acrylamido)-2-phenylethyl)pyridazin-4-yl)phenylcarbamate]
55 nM	COC(=O)Nc1ccc(-c2cc([C@H](CC3CCCN(C(=O)C(C)C)C3)NC(=O)/C=C/c3cc(Cl)ccc3-n3cnnn3)nnc2Cl)cc1 (single isomer, unassigned) [Example 118]
67 nM	COC(=O)Nc1ccc(-c2cc([C@H](CCSC)NC(=O)/C=C/c3cc(Cl)ccc3-n3cnnn3)nnc2Cl)cc1 [Example 90, (S,E)-Methyl 4-(3-chloro-6-(1-(3-(5-chloro-2-(1H-tetrazol-1-yl)phenyl)acrylamido)-3-(methylthio)propyl)pyridazin-4-yl)phenylcarbamate]
327 nM	CCN1CCC(C[C@H](NC(=O)/C=C/c2cc(Cl)ccc2-n2cnnn2)c2cc(-c3ccc(NC(=O)OC)cc3)c(Cl)nn2)C1 (stereo partly drawn) [Example 116, Methyl 4-(3-chloro-6-((1S)-1-((E)-3-(5-chloro-2-(1 H-tetrazol-1-yl)phenyl)acrylamido)-2-(1-ethylpyrrolidin-3-yl)ethyl)pyridazin-4-yl)phenylcarbamate]
156 nM	COC(=O)Nc1ccc(-c2cc([C@H](Cc3ccccc3)NC(=O)/C=C/c3cc(Cl)ccc3-n3cnnn3)nn(C)c2=O)cc1 [Example 40, (S,E)-Methyl 4-(6-(1-(3-(5-chloro-2-(1H-tetrazol-1-yl)phenyl)acrylamido)-2-phenylethyl)-2-methyl-3-oxo-2,3-dihydropyridazin-4-yl)phenylcarbamate]
9.4 nM	CCn1ccc(C[C@H](NC(=O)/C=C/c2cc(Cl)ccc2-n2cnnn2)c2cc(-c3ccc(NC(=O)OC)cc3)c(Cl)nn2)n1 [Example 71, (S,E)-Methyl 4-(3-chloro-6-(1-(3-(5-chloro-2-(1H-tetrazol-1-yl)phenyl)acrylamido)-2-(1-ethyl-1H-pyrazol-3-yl)ethyl)pyridazin-4-yl)phenylcarbamate]
4 nM	COC(=O)Nc1ccc(-c2cc(C(CC(=O)N3CCN(C)CC3)NC(=O)/C=C/c3cc(Cl)ccc3-n3cnnn3)c(Cl)nn2)cc1 (single isomer, unassigned) [Example 27, (E)-Methyl 4-(6-chloro-5-(1-(3-(5-chloro-2-(1H-tetrazol-1-yl)phenyl)acrylamido)-3-(4-methylpiperazin-1-yl)-3-oxopropyl)pyridazin-3-yl)phenylcarbamate]
6360 nM	COC(=O)Nc1ccc(-c2cc([C@H](CC3CCCN(C(=O)C4CC4)C3)NC(=O)/C=C/c3cc(Cl)ccc3-n3cnnn3)nnc2Cl)cc1 (stereo partly drawn) [Example 112, Methyl 4-(3-chloro-6-((1S)-1-((E)-3-(5-chloro-2-(1 H-tetrazol-1-yl)phenyl)acrylamido)-2-(1-(cyclopropanecarbonyl)piperidin-3-yl)ethyl)pyridazin-4-yl)phenylcarbamate]
20 nM	Nc1ccc(-c2cc(C(Cc3ccccc3)NC(=O)/C=C/c3cc(Cl)ccc3-n3cnnn3)c(Cl)nn2)cn1 (racemic) [Example 36, (±)-(E)-N-(1-(6-(6-Aminopyridin-3-yl)-3-chloropyridazin-4-yl)-2-phenylethyl)-3-(5-chloro-2-(1H-tetrazol-1-yl)phenyl)acrylamide]
176 nM	COC(=O)Nc1ccc(-c2cc([C@H](CC3CCCN(S(C)(=O)=O)C3)NC(=O)/C=C/c3cc(Cl)ccc3-n3cnnn3)n[nH]c2=O)cc1 (stereo partly drawn) [Example 154, Methyl 4-(6-((1S)-1-((E)-3-(5-chloro-2-(1H-tetrazol-1-yl)phenyl)acrylamido)-2-(1-(methylsulfonyl)piperidin-3-yl)ethyl)-3-oxo-2,3-dihydropyridazin-4-yl)phenylcarbamate]
2.9 nM	COC(=O)Nc1ccc(-c2cc(C(CC(=O)OC(C)(C)C)NC(=O)/C=C/c3cc(Cl)ccc3-n3cnnn3)c(Cl)nn2)cc1 (single isomer, unassigned) [Example 20, (E)-tert-Butyl 3-(3-(5-chloro-2-(1H-tetrazol-1-yl)phenyl)acrylamido)-3-(3-chloro-6-(4-(methoxycarbonylamino)phenyl)pyridazin-4-yl)propanoate]
3330 nM	NC1CC1C(=O)Nc1ccc(-c2cnnc([C@H](Cc3ccccc3)NC(=O)/C=C/c3cc(Cl)ccc3-n3cnnn3)c2)cc1 (stereo partly drawn) [Example 80, 2-Amino-N-(4-(6-((S)-1-((E)-3-(5-chloro-2-(1H-tetrazol-1-yl)phenyl)acrylamido)-2-phenylethyl)pyridazin-4-yl)phenyl)cyclopropanecarboxamide]
27 nM	COC(=O)Nc1ccc(-c2cc([C@H](Cc3ccncc3)NC(=O)/C=C/c3cc(Cl)ccc3-n3cnnn3)nnc2Cl)cc1 [Example 94, (S,E)-Methyl 4-(3-chloro-6-(1-(3-(5-chloro-2-(1H-tetrazol-1-yl)phenyl)acrylamido)-2-(pyridin-4-yl)ethyl)pyridazin-4-yl)phenylcarbamate]
76 nM	COC(=O)Nc1ccc(-c2cc([C@H](Cc3cc([S+](C)[O-])n(C)n3)NC(=O)/C=C/c3cc(Cl)ccc3-n3cnnn3)n[nH]c2=O)cc1 (stereo partly drawn) [Example 132, (S,E)-Methyl 4-(6-(1-(3-(5-chloro-2-(1H-tetrazol-1-yl)phenyl)acrylamido)-2-(1-methyl-5-(methylsulfinyl)-1H-pyrazol-3-yl)ethyl)-3-oxo-2,3-dihydropyridazin-4-yl)phenylcarbamate]
57 nM	COC(=O)Nc1ccc(-c2cc([C@H](Cc3cscn3)NC(=O)/C=C/c3cc(Cl)ccc3-n3cnnn3)nnc2Cl)cc1 [Example 123, (S,E)-Methyl 4-(3-chloro-6-(1-(3-(5-chloro-2-(1H-tetrazol-1-yl)phenyl)acrylamido)-2-(thiazol-4-yl)ethyl)pyridazin-4-yl)phenylcarbamate]
3370 nM	O=C(O)CCOC(=O)Nc1ccc(-c2cnnc([C@H](Cc3ccccc3)NC(=O)CCc3ccccc3-n3cnnn3)c2)cc1 [Example 60, (S)-3-(4-(6-(1-(3-(2-(1H-Tetrazol-1-yl)phenyl)propanamido)-2-phenylethyl)pyridazin-4-yl)phenylcarbamoyloxy)propanoic acid]
503 nM	COC(=O)Nc1ccc(-c2cc([C@H](CC3CN(C(=O)OC(C)(C)C)C3)NC(=O)/C=C/c3cc(Cl)ccc3-n3cnnn3)n[nH]c2=O)cc1 [Example 136, (S,E)-tert-Butyl 3-(2-(3-(5-chloro-2-(1H-tetrazol-1-yl)phenyl)acrylamido)-2-(5-(4-(methoxycarbonylamino)phenyl)-6-oxo-1,6-dihydropyridazin-3-yl)ethyl)azetidine-1-carboxylate]
630 nM	COC(=O)Nc1ccc(-c2cc(C(Cc3ccccc3)NC(=O)/C=C/c3cc(Cl)ccc3-n3cnnn3)c(Cl)nn2)cc1 (single isomer, unassigned) [Example 3, (E)-Methyl 4-(6-chloro-5-(1-(3-(5-chloro-2-(1H-tetrazol-1-yl)phenyl)acrylamido)-2-phenylethyl)pyridazin-3-yl)phenylcarbamate]

From patent US8324199B2, “Pyridazine derivatives as factor xia inhibitors” (Bristol-Myers Squibb Company, priority 2008, dated 2012)
